The results in this text go back to article PMC5222590 (Structure(London, England:1993), 2017).

For this test, the target named is T1, FusA (Streptococcus pneumoniae, UniProt A0A0H2URD6).
T1 sequence (A0A0H2URD6 47-538): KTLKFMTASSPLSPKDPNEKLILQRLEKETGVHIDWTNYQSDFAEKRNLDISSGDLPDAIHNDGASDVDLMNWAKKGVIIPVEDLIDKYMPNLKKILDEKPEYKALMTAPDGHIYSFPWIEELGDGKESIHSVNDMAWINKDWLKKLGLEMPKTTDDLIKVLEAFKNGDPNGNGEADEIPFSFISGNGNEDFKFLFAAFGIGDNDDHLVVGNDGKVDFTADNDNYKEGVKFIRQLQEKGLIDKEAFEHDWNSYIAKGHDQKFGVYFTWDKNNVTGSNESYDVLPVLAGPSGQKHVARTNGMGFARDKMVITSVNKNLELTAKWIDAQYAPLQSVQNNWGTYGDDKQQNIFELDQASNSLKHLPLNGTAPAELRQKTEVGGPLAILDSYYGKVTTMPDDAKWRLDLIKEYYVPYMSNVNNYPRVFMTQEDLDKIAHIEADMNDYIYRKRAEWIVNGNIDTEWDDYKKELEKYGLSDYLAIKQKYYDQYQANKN
In words: ITC. It is filed as binding. The following applies: pH 7.4, 0.15 M NaCl, 25 °C; 1:1.

As for `OC[C@H]1O[C@@](CO)(OC[C@@]2(OC[C@@]3(O[C@H]4O[C@H](CO)[C@@H](O)[C@H](O)[C@H]4O)O[C@H](CO)[C@@H](O)[C@@H]3O)O[C@H](CO)[C@@H](O)[C@@H]2O)[C@@H](O)[C@@H]1O` [GF3, nystose], the KD result is “FusA had submicromolar affinity for fructofuranosyl-nystose and nystose”.
